Experimental data published in ChEMBL document CHEMBL1142056, “Structure-activity relationships of the oxindole growth hormone secretagogues” (Bioorg Med Chem Lett, 2005).

Columns and labels:
[1] = biological target: Growth hormone secretagogue receptor type 1 (Homo sapiens, UniProt Q92847); experiment: Inhibition of [125I]ghrelin binding to human recombinant ghrelin receptor membrane preparation
[2] = Clearance value intravenously administered to rats with 5 mg/kg; assay type: ADME, organism-based; parameters: dose 5 mg/kg, route intravenous; conditions: rat, in vivo, iv
[3] = Bioavailability value in rat after oral dose of 20 mg/k; assay type: ADME, organism-based; conditions: in vivo, 20 mg/kg, read-out: Bioavailabiility
[4] = Half life value intravenously administered to rats with 5 mg/kg; assay type: ADME, organism-based; parameters: dose 5 mg/kg, route intravenous; conditions: rat, in vivo, iv
[5] = Cmax value in rat after oral dose of 20 mg/k; assay type: ADME, organism-based; parameters: route oral; conditions: in vivo, 20 mg/kg
[6] = Volume of distribution value intravenously administered to rats with 5 mg/kg; assay type: ADME, organism-based; parameters: dose 5 mg/kg, route intravenous; conditions: rat, in vivo, iv

Chain of Growth hormone secretagogue receptor type 1 (Q92847 whole entry): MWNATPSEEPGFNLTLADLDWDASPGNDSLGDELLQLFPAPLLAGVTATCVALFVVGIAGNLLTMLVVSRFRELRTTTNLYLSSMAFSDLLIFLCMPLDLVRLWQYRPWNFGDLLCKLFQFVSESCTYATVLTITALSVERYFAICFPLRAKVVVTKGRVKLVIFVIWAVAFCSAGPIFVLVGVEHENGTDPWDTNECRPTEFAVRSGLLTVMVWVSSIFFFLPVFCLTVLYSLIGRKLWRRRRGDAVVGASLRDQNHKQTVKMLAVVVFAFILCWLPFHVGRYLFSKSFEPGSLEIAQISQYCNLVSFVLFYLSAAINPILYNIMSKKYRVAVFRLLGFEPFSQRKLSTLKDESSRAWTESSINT

Row | SMILES | IC50 [1] [nM] | further results
1 | CCN(CC)CCN1C(=O)[C@@](O)(c2ccc(Cl)cc2Cl)c2c1cc(C(N)=O)cc2C(F)(F)F | 0.02 | clearance [2]: 51 mL/min/kg; bioavailability [3]: 28%; half-life [4]: 1.6 h; Cmax [5]: 491 ng/mL; Vd [6]: 5.4 L/kg
2 | CCN(CC)CCN1C(=O)[C@@](O)(c2cccc(Cl)c2)c2c1cc(C(N)=O)cc2C(F)(F)F | 15 | –
3 | CCN(CC)CCN1C(=O)[C@@](O)(c2cc(Cl)ccc2Cl)c2c1cc(C(N)=O)cc2C(F)(F)F | 0.24 | –
4 | CCN(CC)CCN1C(=O)[C@@](O)(c2ccc(OC)cc2)c2c1cc(C(N)=O)cc2C(F)(F)F | 106 | –
5 | CCN(CC)CCN1C(=O)C(O)(c2ccccc2)c2c1cc(C(N)=O)cc2C(F)(F)F (configuration not stated) | 116 | –
6 | CCN(CC)CCN1C(=O)[C@@](O)(c2cccc(OC)c2)c2c1cc(C(N)=O)cc2C(F)(F)F | 77 | –
7 | CCN(CC)CCN1C(=O)[C@@](O)(c2c(Cl)cccc2Cl)c2c1cc(C(N)=O)cc2C(F)(F)F | 4.2 | –
8 | CCN(CC)CCN1C(=O)[C@@](O)(c2ccccc2OC)c2c1cc(C(N)=O)cc2C(F)(F)F | 160 | –
9 | CCN(CC)CCN1C(=O)[C@@](O)(c2ccc(Cl)cc2)c2c1cc(C(N)=O)cc2C(F)(F)F | 83 | –
10 | CCN(CC)CCN1C(=O)[C@@](O)(c2ccccc2Cl)c2c1cc(C(N)=O)cc2C(F)(F)F | 2.1 | –
11 | CCN(CC)CCN1C(=O)[C@@](O)(c2cccc(Cl)c2Cl)c2c1cc(C(N)=O)cc2C(F)(F)F | 1.6 | –
12 | CCN(CC)CCN1C(=O)C(O)(c2ccccc2Cl)c2c1cc(C(N)=O)cc2C(F)(F)F (configuration not stated) | 4 | –
